Data taken from patent US9250238B2, “Pathogen detection” (priority 2010, dated 2016).

How the values were obtained:
Y. enterocolitica = test: Capture on FOB-BSA micropatterned chips, darkfield and FFT; assay type: binding, Yersinia enterocolitica; conditions: NHS-activated codelink slide, 10^8 cfu/ml
peanut lectin = target: T1, peanut lectin (Arachis hypogaea, UniProt P02872); test: Flow immunocytometry of peanut lectin binding to lactose-conjugated microspheres
T1 construct: purchased Sigma (St. Louis, Mo.)
Protocol: Bishydrazide glycoconjugates can be directly attached onto surface-active substrates for the selective capture of lectins and subsequent binding immunoassays. For example, lactosebishydrazide 6 was attached onto NHS-activated latex microspheres in order to measure the binding affinity of peanut lectin by flow immunocytometry (Kd)) 50 nM), using a FITC-labeled secondary antibody for fluorescence detection (FIGS. 12A and 13). […] However, in some cases the use of carrier proteins such as BSA may be more convenient for surface functionalization by simple physisorption.
For flow cytometry, carboxylic acid functionalized microspheres were conjugated to lactose-bishydrazide 6 via standard EDC coupling for 16 hours at room temperature, followed by multiple washes with PBS. The lactose-conjugated microspheres were dispersed in PBS (1.2 mL) and split into several Eppendorf tubes, which were incubated with increasing concentrations of peanut lectin in the presence or absence of 100-fold excess lactose. After incubating for 2 hours at room temperature, tubes were rinsed and subjected to sequential incubation with anti-lectin rabbit IgG and anti-rabbit FITC IgG as described above. The microspheres were then analyzed for fluorescent immunolabeling using a flow cytometer (Cytomics F500, Beckman Coulter, 10^4 microspheres/sample). […]

Pseudomonas aeruginosa [1] = test: Capture of Pseudomonas on glycan-patterned substrates, darkfield and FFT; assay type: binding
Description: A similar approach was used to generate photopatterned arrays of the pulmonary trisaccharide and 2′-fucosyllactose on BSA-coated substrates, using glycan-bishydrazide-ANB conjugates 16 and 17, respectively. These micropatterned substrates were exposed to the opportunistic pathogen Pseudomonas aeruginosa at 10^6-10^8 cfu/mL, then washed and imaged by optical darkfield microscopy to visualize patterns of glycan-immobilized bacteria in a label-free manner (FIGS. 15-17). […] Furthermore, only live Pseudomonas were captured by the trisaccharide ligands; exposing the bacteria to UV irradiation for 2 hours prior to their introduction resulted again in no observable pattern (FIG. 18). […]
Glycan-bishydrazide conjugates could also be patterned onto substrates by microcontact printing (μCP), a well-established “soft lithography” technique based on microfabricated polydimethylsiloxane (PDMS) stamps for the physical transfer of organic or biomolecular ligands, including glycans (Kumar and Whitesides, Appl. Phys. Lett. 1993, 63:2002-2004; Bernard et al., Adv. Mater. 2000, 12:1067-1070; Inerowicz et al., Langmuir 2002, 18:5263-5268; Godula et al., Angew. Chem., Int. Ed 2009, 48:4973-4976; Wendeln et al., Langmuir 2010, 26:4933-4940). […] The substrates were blocked then exposed for 1 hour to Pseudomonas at 10^2-10^8 cfu/mL, then evaluated for evidence of patterned pathogen capture (FIGS. 19, 19A). […]

Acinetobacter baumanii = test: PathoChip detection sensitivity; assay type: binding; conditions: ligand conjugated to BSA
Chlamydia trachomatis = test: PathoChip detection sensitivity; assay type: binding; conditions: ligand conjugated to BSA
Mycobacterium smegmatis = test: PathoChip detection sensitivity; assay type: binding; conditions: ligand conjugated to BSA
Pseudomonas aeruginosa [2] = test: PathoChip detection sensitivity; assay type: binding; conditions: ligand conjugated to BSA
Shigella spp. = test: PathoChip detection sensitivity; assay type: binding; conditions: ligand conjugated to BSA
Staphylococcus aureus = test: PathoChip detection sensitivity; assay type: binding; conditions: ligand conjugated to BSA
Vibrio cholerae = test: PathoChip detection sensitivity; assay type: binding; conditions: ligand conjugated to BSA
Streptococcus pneumonaie = test: PathoChip detection sensitivity; assay type: binding; conditions: ligand conjugated to BSA

T1 sequence (P02872 24-273): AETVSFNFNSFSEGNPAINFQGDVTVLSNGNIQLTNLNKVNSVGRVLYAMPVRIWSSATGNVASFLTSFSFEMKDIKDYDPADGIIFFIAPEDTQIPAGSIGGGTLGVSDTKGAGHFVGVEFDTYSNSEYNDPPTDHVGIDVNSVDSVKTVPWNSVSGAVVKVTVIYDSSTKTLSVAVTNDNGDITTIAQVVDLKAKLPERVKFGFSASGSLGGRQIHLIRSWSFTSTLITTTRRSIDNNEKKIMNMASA

## CC(=O)N([O-])CCCCCNC(=O)CCC(=O)N([O-])CCCCCNC(=O)CCC(=O)N([O-])CCCCCN.[Fe+3] [FOB, ferrioxamine]
Y. enterocolitica
  bacteria binding with ligand attached directly, no BSA linker: less bacteria binding onto the pattern than in the presence of BSA

## NNC(=O)COCCOCCOCCOCCOCCOCCOCC(=O)NN[C@@H]1OC(CO)[C@@H](OC2OC(CO)[C@H](O)[C@H](O)[C@@H]2O)[C@H](O)C1O (stereo partly shown) [conjugate 6, Hexa(ethylene glycol)-linked lactose-bishydrazide conjugate]
Peanut lectin; 6 attached to NHS-activated latex microspheres, FITC secondary antibody
  Kd: 0.05 µM
Peanut lectin; against 1 mM lactose
  increase of Kd in competition assay: 10 fold

## Hexa(ethylene glycol)-Linked 2′-Fucosyllactose-Bishydrazide Conjugate [conjugate 8]
Pseudomonas aeruginosa [1]
  avidity of Pseudomonas cultures relative to pulmonary trisaccharide 7: much lower avidity

## heparin
Acinetobacter baumanii
  sensitivity, Acinetobacter baumanii: 1E6 cfu/mL
Chlamydia trachomatis
  sensitivity, Chlamydia trachomatis: 1E3 cfu/mL
Chlamydia trachomatis; listed as Heparin
  sensitivity, Chlamydia trachomatis: 10^3 cfu/mL
Mycobacterium smegmatis
  sensitivity, Mycobacterium smegmatis: 1E6 cfu/mL
Pseudomonas aeruginosa [2]
  sensitivity, Pseudomonas aeruginosa: 1E6 cfu/mL
Shigella spp.
  sensitivity, Shigella spp.: 1E6+ cfu/mL
Staphylococcus aureus
  sensitivity, Staphylococcus aureus: 1E6 cfu/mL
Vibrio cholerae
  sensitivity, Vibrio cholerae: 1E6+ cfu/mL

## Hemin
Pseudomonas aeruginosa [2]
  sensitivity, Pseudomonas aeruginosa: 1E3 cfu/mL
Staphylococcus aureus
  sensitivity, Staphylococcus aureus: 1E3 cfu/mL
Streptococcus pneumonaie
  sensitivity, Streptococcus pneumonaie: 1E5 cfu/mL
Vibrio cholerae
  sensitivity, Vibrio cholerae: 1E6/1E6 cfu/mL
